Reference: patent US12268710B2, “Method of treating severe forms of pulmonary hypertension” (ReversPAH LLC, priority 2019, dated 2025)
“Also recorded” adds a separate entry of the source. Each block holds one compound with its values, some of them ahead of it.

Tests used:
[1] = system: Sugen/Hypoxia rats (SuHx) with established PAH; assay: Sugen 5416/chronic hypoxia rat model of severe angio-obliterative PAH; assay type: in vivo
Procedure: Specifically, FIGS. 4A and B, which are from the paper which included Norbert F. Voelkel as a senior author, show the compared results of control rats, Sugen/Hypoxia rats (SuHx) with established PAH, and SuHx rats treated with TTM in an amount of 10 mg/kg every other day for 10 days. […] FIG. 5 provides the results, which compares the degree of obliteration of c-kit^+ expressing stem cells in the lung vessels of Sugen/Hypoxia rats (SuHx) treated with a vehicle (SuHx-vehicle) and Sugen/Hypoxia rats treated with TTM (SuHx-TTM) in an amount of 10 mg/kg every other day for 10 days. Third, copper plays a role in the alteration of genes of the cytochrome P450. The lung and, in particular, the lung vascular endothelial cells (EC) are involved in drug metabolism and the handling of toxic substances. It is known that cigarette smoke toxins highly up-regulate the expression of specific drug metabolizing genes, the genes of the cytochrome P450 super-family. There are 56 known cytochrome P450 genes coding for 56 isozymes. These enzymes metabolize 75% of all drugs in use, including all of the vasodilator drugs conventionally used for PAH treatment. These enzymes also are involved in cell growth and differentiation, in cholesterol and estrogen metabolism and for many years a role of these enzymes in the pathogenesis of cancers has been examined (in particular prostate, breast and lung cancer) (Kwapiszewska G et al, Circulation Research, submitted 2019). Norbert F. Voelkel discovered that the drug Sugen 5416, a component of the Sugen-induced rat models of angio-obliterative PAH, induces some of these cytochrome P450 isozyme genes more than 200-fold (Al-Husseini et al, Pulm Circ. 2015 March; 5(1); 101-116). […] Specifically, the vessel lumina are occluded in the not-treated animals (SuHx), whereas they have been reopened after the treated animals (SuHx+TTM) received 10 mg/kg TTM every other day for 10 days. […] The treatment lasted 3 weeks (21 days) with DEC being administered in an amount of 50 mg/kg daily treatment. Norbert F. Voelkel concludes that the anti-inflammatory drug DEC affects developing PAH and is partially effective once angio-obliterative PAH has been established.

[2] = system: patient with pulmonary veno-occlusive disease (PVOD); assay: Low-dose MTX treatment of one patient with pulmonary veno-occlusive disease; assay type: in vivo, human
Source text: Another possible co-drug is methotrexate. […] MTX is of particular interest because it is an inhibitor of the enzyme dihydrofolate reductase and thereby inhibits DNA, RNA and protein synthesis, which is the desired action in cancer treatment at high MTX doses. Norbert Voelkel has prescribed MTX for one patient with pulmonary veno-occlusive disease, which is a rare form of severe PH. […] The anti-inflammatory and immune system affecting action of MTX is accomplished with low doses. […] PVOD is a fatal and extremely rare PH disorder. […] Vasodilator-induced lung edema precludes the use of vasodilator drugs in these patients.

rodent models of PH = details: in vivo; cited from earlier work
[3] = system: cytochrome P450 isozyme genes; assay: Induction of cytochrome P450 isozyme genes by Sugen 5416; details: Al-Husseini et al, Pulm Circ. 2015
Source text: Third, copper plays a role in the alteration of genes of the cytochrome P450. The lung and, in particular, the lung vascular endothelial cells (EC) are involved in drug metabolism and the handling of toxic substances. It is known that cigarette smoke toxins highly up-regulate the expression of specific drug metabolizing genes, the genes of the cytochrome P450 super-family. There are 56 known cytochrome P450 genes coding for 56 isozymes. These enzymes metabolize 75% of all drugs in use, including all of the vasodilator drugs conventionally used for PAH treatment. These enzymes also are involved in cell growth and differentiation, in cholesterol and estrogen metabolism and for many years a role of these enzymes in the pathogenesis of cancers has been examined (in particular prostate, breast and lung cancer) (Kwapiszewska G et al, Circulation Research, submitted 2019). Norbert F. Voelkel discovered that the drug Sugen 5416, a component of the Sugen-induced rat models of angio-obliterative PAH, induces some of these cytochrome P450 isozyme genes more than 200-fold (Al-Husseini et al, Pulm Circ. 2015 March; 5(1); 101-116). […] Specifically, the vessel lumina are occluded in the not-treated animals (SuHx), whereas they have been reopened after the treated animals (SuHx+TTM) received 10 mg/kg TTM every other day for 10 days.

[4] = system: silica-induced lung inflammation and fibrosis; details: by inhibiting T-helper 17 cell (TH 17); cited from earlier work
[5] = system: monocrotaline-induced pulmonary hypertension; details: through the bone morphogenetic protein signaling pathway; cited from earlier work
angiogenesis = details: high dosage; through the induction of apoptosis; cited from earlier work
colon cancer = details: by apoptosis and cellular senescence; cited from earlier work
[6] = system: Sugen/Hypoxia rats (SuHx) with established PAH; details: Farkas D. et al 2014; cited from earlier work
[7] = DEC study 2015 (Al Husseini et al)
[8] = after lung vascular disease established, 50 mg/kg daily for 3 weeks (21 days)
[9] = established severe PAH, treated for two weeks

Structure (SMILES): CCN(CC)C(=O)N1CCN(C)CC1 [DEC, diethylcarbamazine]
muscularization of pulmonary arterioles [1, 7]: blunted
number of fully obliterated lung vessels [1, 7]: reduced
occluded vessels (FIGS. 8A-C) ([1]; SuHx+DEC vs SuHx): reopens occluded vessels
degree of PAH [1, 8]: reduced
degree of perivascular inflammation [1, 8]: reduced
number of obliterated arterioles [1, 8]: reduced

Structure (SMILES): CN(Cc1cnc2nc(N)nc(N)c2n1)c1ccc(C(=O)N[C@@H](CCC(=O)O)C(=O)O)cc1 [MTX, Methotrexate]
reversal of the PH [2]: did not reverse the PH
survival [2]: prolonged survival
progression of the disease (PVOD) ([2]; low dose MTX): arrested the proliferative progression; also recorded: halted

Structure (SMILES): O=c1c(O)c(-c2ccc(O)c(O)c2)oc2cc(O)cc(O)c12 [Quercetin]
vascular remodeling in rodent models of PH (rodent models of PH): inhibit

induction of some cytochrome P450 isozyme genes [3]: more than 200 fold
Structure (SMILES): Cc1cc(C)c(/C=C2\C(=O)Nc3ccccc32)[nH]1 [Sugen 5416]

Structure (SMILES): [NH4+].[NH4+].[SH-].[SH-].[S]=[Mo]=[S] [TTM, ammonium tetrathiomolybdate]
expression of integrin protein alpha v beta 3 in lung (FIGS. 4A, B) ([1]; 10 mg/kg every other day for 10 days): reduced; also recorded: normalized
lung vessel lumina / arterioles (immunohistochemistry, FIG. 2) ([1]; 10 mg/kg every other day for 10 days, intraperitoneal, SuHx+TTM vs SuHx): reopened; also recorded: reopens lung arterioles
number of c-kit+ precursor cells in the lung vascular lesions (FIG. 5) ([1]; 10 mg/kg every other day for 10 days, vs SuHx-vehicle): reduced the number of c-kit+ precursor cells
expression of anoikis marker protein BIM in lung tissue (FIG. 3) ([1]; SuHx-TTM vs SuHx, referenced to beta-actin): upregulated
anoikis, evidenced by cells expressing the marker BIM ([1]; TTM-treated SuHx rats): induced anoikis
occluded lung vessels [1, 9]: reopening of occluded lung vessels
pulmonary arterial pressure [1, 9]: cut the pulmonary arterial pressure in half
reversal of established severe PAH [1, 9]: reversed the PAH

Structure (SMILES): O=C(O)[C@H]1O[C@@H](Oc2cc3oc(-c4ccccc4)cc(=O)c3c(O)c2O)[C@H](O)[C@@H](O)[C@@H]1O [baicalin]
silica-induced lung inflammation and fibrosis [4]: alleviate
monocrotaline-induced pulmonary hypertension [5]: attenuate
angiogenesis (angiogenesis): inhibit angiogenesis
colon cancer (colon cancer): inhibit colon cancer

Structure (SMILES): S=C(S)N1CCCC1 [pyrrolidine dithiocarbamate]
reversal of established angio-obliterative PAH [6]: reverse established angio-obliterative PAH
